{"source": "paper PMC9220351", "about": "“Evaluation of a Conformationally Constrained Indole Carboxamide as a Potential Efflux Pump Inhibitor in Pseudomonas aeruginosa” (Antibiotics, 2022)", "key": {"[1]": {"system": "34 MDR P. aeruginosa clinical isolates (CDC & FDA AR Isolate Bank)", "assay": "microbe, parasite or virus in culture", "assay_type": "cell-based, Pseudomonas aeruginosa", "conditions": "for Levofloxacin MIC fold difference: + labelled EPI […] (TXA09155 head: 50 µg/mL); for Levofloxacin MIC: alone or + labelled EPI […] (TXA09155 head: 50 µg/mL)", "from_the_text": "P. aeruginosa ATCC 27853 was obtained from the American Type Culture Collection (ATCC; Manassas, VA, USA). P. aeruginosa multidrug-resistant isolates were obtained from the CDC and FDA Antibiotic Resistance Isolate Bank (Atlanta, GA, USA). P. aeruginosa DA7232 (gyrA-T83I, parC-S80L) was a kind gift from Prof. Dan I. Andersson, Uppsala University, Uppsala, Sweden, and has been characterized elsewhere. P. aeruginosa strains K767 (WT), K1455 (mexAB-oprM overexpressed), K2415 (mexXY-oprM overexpressed), and K3698 (oprM∆) were obtained from Prof. Keith Poole, Queen’s University, Kingston, Ontario, Canada and have been characterized elsewhere. Bacterial cells were grown in cation-adjusted Mueller Hinton (CAMH) media, brain heart infusion broth (BHI), or tryptic soy agar (TSA) plates were all obtained from Becton, Dickinson, and Company (BD; Franklin Lakes, NJ, USA). […] Azithromycin was purchased from Tokyo Chemical Industry (Portland, OR, USA). […] Ethidium bromide (EtBr) and glucose were purchased from VWR (Radnor, PA, USA). MC-04,124 and TXA01182 were synthesized at TAXIS Pharmaceuticals. Carbonyl cyanide 3-chlorophenylhydrazone (CCCP) was purchased from Enzo Life Sciences (Farmingdale, NY, USA). DiOC2 (3) and propidium iodide were obtained from Thermo Fisher Scientific (Waltham, MA, USA).\nMIC assays were performed as described previously."}, "P. aeruginosa ATCC 27853": {"system": "P. aeruginosa ATCC 27853", "assay_type": "cell-based, Pseudomonas aeruginosa", "conditions": "levofloxacin 4 μg/mL + EPI […]", "experimental": "All resistant colonies were verified by determining the MIC to TXA09155. […] This two-component system regulates the expression of more than 100 genes in P. aeruginosa, including genes that code for efflux components (mexX), and plays a role in the resistance to cationic antimicrobial peptides and aminoglycoside antibiotics.\nThe frequency of resistance studies was carried out as described previously."}}, "data": [{"molecule": "NCCC[C@H](N)CNC(=O)c1cc2ccc(-c3ccc(F)cc3)cc2[nH]1", "note": "[TXA01182]", "values": [{"measurement": "Levofloxacin MIC fold difference", "setting": "[1]; strain AR-0229", "value": 8}, {"measurement": "Levofloxacin MIC", "setting": "[1]; strain AR-0229", "value": 8, "unit": "µg/mL"}, {"measurement": "Levofloxacin MIC fold difference", "setting": "[1]; strain AR-0230", "value": 4}, {"measurement": "Levofloxacin MIC", "setting": "[1]; strain AR-0230", "value": 16, "unit": "µg/mL"}, {"measurement": "Levofloxacin MIC fold difference", "setting": "[1]; strain AR-0231", "value": 2}, {"measurement": "Levofloxacin MIC", "setting": "[1]; strain AR-0231", "value": 32, "unit": "µg/mL"}, {"measurement": "Levofloxacin MIC fold difference", "setting": "[1]; strain AR-0232", "value": 8}, {"measurement": "Levofloxacin MIC", "setting": "[1]; strain AR-0232", "value": 1, "unit": "µg/mL"}, {"measurement": "Levofloxacin MIC fold difference", "setting": "[1]; strain AR-0233", "value": 8}, {"measurement": "Levofloxacin MIC", "setting": "[1]; strain AR-0233", "value": 0.5, "unit": "µg/mL"}, {"measurement": "Levofloxacin MIC fold difference", "setting": "[1]; strain AR-0234", "value": 8}, {"measurement": "Levofloxacin MIC", "setting": "[1]; strain AR-0234", "value": 1, "unit": "µg/mL"}, {"measurement": "Levofloxacin MIC fold difference", "setting": "[1]; strain AR-0236", "value": 4}, {"measurement": "Levofloxacin MIC", "setting": "[1]; strain AR-0236", "value": 8, "unit": "µg/mL"}, {"measurement": "Levofloxacin MIC fold difference", "setting": "[1]; strain AR-0239", "value": 8}, {"measurement": "Levofloxacin MIC", "setting": "[1]; strain AR-0239", "value": 8, "unit": "µg/mL"}, {"measurement": "Levofloxacin MIC fold difference", "setting": "[1]; strain AR-0240", "value": 8}, {"measurement": "Levofloxacin MIC", "setting": "[1]; strain AR-0240", "value": 16, "unit": "µg/mL"}, {"measurement": "Levofloxacin MIC fold difference", "setting": "[1]; strain AR-0241", "value": 4}, {"measurement": "Levofloxacin MIC", "setting": "[1]; strain AR-0241", "value": 16, "unit": "µg/mL"}, {"measurement": "Levofloxacin MIC fold difference", "setting": "[1]; strain AR-0242", "value": 8}, {"measurement": "Levofloxacin MIC", "setting": "[1]; strain AR-0242", "value": 2, "unit": "µg/mL"}, {"measurement": "Levofloxacin MIC fold difference", "setting": "[1]; strain AR-0244", "value": 16}, {"measurement": "Levofloxacin MIC", "setting": "[1]; strain AR-0244", "value": 8, "unit": "µg/mL"}, {"measurement": "Levofloxacin MIC fold difference", "setting": "[1]; strain AR-0245", "value": 4}, {"measurement": "Levofloxacin MIC", "setting": "[1]; strain AR-0245", "value": 32, "unit": "µg/mL"}, {"measurement": "Levofloxacin MIC fold difference", "setting": "[1]; strain AR-0246", "value": 4}, {"measurement": "Levofloxacin MIC", "setting": "[1]; strain AR-0246", "value": 16, "unit": "µg/mL"}, {"measurement": "Levofloxacin MIC fold difference", "setting": "[1]; strain AR-0247", "value": 64}, {"measurement": "Levofloxacin MIC", "setting": "[1]; strain AR-0247", "value": 0.031, "unit": "µg/mL"}, {"measurement": "Levofloxacin MIC fold difference", "setting": "[1]; strain AR-0248", "value": 8}, {"measurement": "Levofloxacin MIC", "setting": "[1]; strain AR-0248", "value": 2, "unit": "µg/mL"}, {"measurement": "Levofloxacin MIC fold difference", "setting": "[1]; strain AR-0249", "value": 8}, {"measurement": "Levofloxacin MIC", "setting": "[1]; strain AR-0249", "value": 8, "unit": "µg/mL"}, {"measurement": "Levofloxacin MIC fold difference", "setting": "[1]; strain AR-0250", "value": 4}, {"measurement": "Levofloxacin MIC", "setting": "[1]; strain AR-0250", "value": 16, "unit": "µg/mL"}, {"measurement": "Levofloxacin MIC fold difference", "setting": "[1]; strain AR-0252", "value": 16}, {"measurement": "Levofloxacin MIC", "setting": "[1]; strain AR-0252", "value": 2, "unit": "µg/mL"}, {"measurement": "Levofloxacin MIC fold difference", "setting": "[1]; strain AR-0253", "value": 16}, {"measurement": "Levofloxacin MIC", "setting": "[1]; strain AR-0253", "value": 0.125, "unit": "µg/mL"}, {"measurement": "Levofloxacin MIC fold difference", "setting": "[1]; strain AR-0256", "value": 8}, {"measurement": "Levofloxacin MIC", "setting": "[1]; strain AR-0256", "value": 0.062, "unit": "µg/mL"}, {"measurement": "Levofloxacin MIC fold difference", "setting": "[1]; strain AR-0258", "value": 4}, {"measurement": "Levofloxacin MIC", "setting": "[1]; strain AR-0258", "value": 0.125, "unit": "µg/mL"}, {"measurement": "Levofloxacin MIC fold difference", "setting": "[1]; strain AR-0259", "value": 1}, {"measurement": "Levofloxacin MIC", "setting": "[1]; strain AR-0259", "value": 0.125, "unit": "µg/mL"}, {"measurement": "Levofloxacin MIC fold difference", "setting": "[1]; strain AR-0260", "value": 4}, {"measurement": "Levofloxacin MIC", "setting": "[1]; strain AR-0260", "value": 16, "unit": "µg/mL"}, {"measurement": "Levofloxacin MIC fold difference", "setting": "[1]; strain AR-0261", "value": 16}, {"measurement": "Levofloxacin MIC", "setting": "[1]; strain AR-0261", "value": 0.5, "unit": "µg/mL"}, {"measurement": "Levofloxacin MIC fold difference", "setting": "[1]; strain AR-0262", "value": 16}, {"measurement": "Levofloxacin MIC", "setting": "[1]; strain AR-0262", "value": 0.25, "unit": "µg/mL"}, {"measurement": "Levofloxacin MIC fold difference", "setting": "[1]; strain AR-0264", "value": 8}, {"measurement": "Levofloxacin MIC", "setting": "[1]; strain AR-0264", "value": 4, "unit": "µg/mL"}, {"measurement": "Levofloxacin MIC fold difference", "setting": "[1]; strain AR-0265", "value": 8}, {"measurement": "Levofloxacin MIC", "setting": "[1]; strain AR-0265", "value": 8, "unit": "µg/mL"}, {"measurement": "Levofloxacin MIC fold difference", "setting": "[1]; strain AR-0266", "value": 4}, {"measurement": "Levofloxacin MIC", "setting": "[1]; strain AR-0266", "value": 8, "unit": "µg/mL"}, {"measurement": "Levofloxacin MIC fold difference", "setting": "[1]; strain AR-0267", "value": 16}, {"measurement": "Levofloxacin MIC", "setting": "[1]; strain AR-0267", "value": 2, "unit": "µg/mL"}, {"measurement": "Levofloxacin MIC fold difference", "setting": "[1]; strain AR-0269", "value": 8}, {"measurement": "Levofloxacin MIC", "setting": "[1]; strain AR-0269", "value": 4, "unit": "µg/mL"}, {"measurement": "Levofloxacin MIC fold difference", "setting": "[1]; strain AR-0270", "value": 16}, {"measurement": "Levofloxacin MIC", "setting": "[1]; strain AR-0270", "value": 2, "unit": "µg/mL"}, {"measurement": "Levofloxacin MIC fold difference", "setting": "[1]; strain AR-0271", "value": 4}, {"measurement": "Levofloxacin MIC", "setting": "[1]; strain AR-0271", "value": 8, "unit": "µg/mL"}, {"measurement": "Levofloxacin MIC fold difference", "setting": "[1]; strain AR-0272", "value": 4}, {"measurement": "Levofloxacin MIC", "setting": "[1]; strain AR-0272", "value": 4, "unit": "µg/mL"}, {"measurement": "Frequency of resistance, Levofloxacin (4 μg/mL) + TXA01182 ([…])", "setting": "P. aeruginosa ATCC 27853", "value": "<3.33 × 10^−9"}]}]}
